Measurements: patent US4153710A, “N-(4-[2-(pyrazole-1-carbonamide)-ethyl]-benzenesulphonyl)-urea” (Starogardzkie Zaklady Farmaceutyczne POLFA, priority 1976, dated 1979)

Experiments:
[1] = tested on: blood-glucose concentration; assay: Decrease in blood-glucose concentration in rats after oral dose (Table 1; ED30 rats Table 2); type: in vivo; details: Rattus norvegicus, oral, read-out: Effective oral doses ED30
Text: (§1) The hypoglycemic activity of N-{4-[2-(pyrazole-1-carbonamide)-ethyl]-benzenesulphonyl}-ureas prepared according to the present invention can be noticed after their oral administration to mice, rats, rabbits and people and when determining the glucose concentration in blood with a known enzymatic method using glucose oxidase.
The exemplary comparison of effective doses (ED30) and the effect of oral dose size of the compounds prepared according to the present invention with Glibornuride, which is distinguished by its high effectiveness and good tolerance when administered to people, on the glucose concentration in the blood of rats, is given in Table 1.

[2] = tested on: blood-glucose concentration; assay: ED30 oral hypoglycemic dose in mice (Table 2); type: in vivo
Description: as §1
(§2) (Table 2). […] It has been observed that even 9 hours after the administration of one dose of SPC-5002 to rats, the glucose level in blood was decreased, whereas in the case of Glibornuride the glucose level comes back to its normal value in 6 hours from the time of the administration.

[3] = tested on: blood-glucose concentration; assay: ED30 oral hypoglycemic dose in rabbits (Table 2); type: in vivo; details: Oryctolagus cuniculus, read-out: Effective oral doses ED30
Description: as §1, §2

[4] = tested on: blood-glucose concentration; assay: Blood-glucose time course up to 24 hours in rats (Table 3); type: in vivo; details: for glucose concentration in blood, average: oral 4 mg/kg
Description: as §1, §2
(§3) The comparison of SPC-5002 and Glibornuride effect on changes in
concentration of rats in time up to 24 hours from the moment of the
in an oral dose containing 4 mg/kg body weight

[5] = tested on: blood-glucose concentration; assay: Blood-glucose time course up to 24 hours in rabbits (Table 4); type: in vivo; details: oral 5 mg/kg
Description: as §1, with “oxidase. […]” for “oxidase.”
as §3
concentration of rabbits in time up to 24 hours from the moment of the
in an oral dose containing 5 mg/kg body weight

[6] = tested on: oxygen consumption in mitochondria of a rat's liver; assay: Oxygen consumption of rat liver mitochondria; type: biochemical
Description: 2-oxoglutaran 2 mM, ADP 1 mM, mitochondria | protein 4 mg/m. […] The

[7] = tested on: oxidizing phosphorylation in mitochondria of a rat's liver; assay: Oxidizing phosphorylation of rat liver mitochondria; type: biochemical
Description: 2-oxoglutaran 2 mM, ADP 1 mM, mitochondria | protein 4 mg/m. […] The | oxidizing phosphorylation speed was determined by means of the measuremen | of hydrogen ion consumption. The calcium transmission to mitochondria was […]

[8] = tested on: calcium transmission in mitochondria of a rat's liver; assay: Calcium transmission to rat liver mitochondria; type: biochemical; details: for % of inhibition, calcium transmission: medium with CaCl 300 nmoles/ml
Description: Sucrose 170mM, KCl 10 mM, MgCl2 […], K2 HPO 5 mM, EGTA 0.01 mM
2-oxoglutaran 2 mM, ADP 1 mM, mitochondria
protein 4 mg/m. Temperature 25° C.
of hydrogen ion consumption. The calcium transmission to mitochondria was
studied with two methods; in a continuous way with a Radiometer calcium
electrode type F2112 or with an isotopic method.
*The medium contained Ca Cl 300 nmoles/ml.

[9] = tested on: glucose concentration; assay: Blood glucose in normal men volunteers (Table 7); type: in vivo; details: for Glucose concentration: oral 5 mg SPC-5002 or 12.5 mg Glibornuride
Description: as §1
(§4) When administered to normal men volunteers it has been stated that 60 minutes after the administration of SPC-5002 a 5 mg oral dose causes the decrease in blood-glucose of 28% in comparision to the starting value and after 90 minutes it reaches 33% (Table 7). Whereas Glibornuride employed in a dose 2.5 times as big on peak of its activity decreases the glucose blood level only of 19%. It can clearly be noticed that there is a positive correlation between the glycemic and insulin level curves. Both examined preparations cause a significant decrease in free fatty acids in blood. […] 60 and 90 minutes after the SPC-5002 administration, the blood-glycose level is decreased to 33 and 52% while in the Placebo group it is maintained in the range of 13-14%.
(§5) The comparison of glucose, insulin and free fatty acids concentration in
(§6) normal men after the oral administration of 5 mg of SPC-5002 or 12.5 mg

[10] = tested on: insulin concentration; assay: Insulin in normal men volunteers (Table 7); type: in vivo; details: oral 5 mg SPC-5002 or 12.5 mg Glibornuride
Description: as §4, §5, §6

[11] = tested on: free fatty acids concentration; assay: Free fatty acids in normal men volunteers (Table 7); type: in vivo; details: oral 5 mg SPC-5002 or 12.5 mg Glibornuride
Description: as §4, §5, §6

Cc1ccc(S(=O)(=O)NC(=O)N[C@H]2[C@H]3CC[C@@](C)([C@H]2O)C3(C)C)cc1 [Glibornuride, N-(p-toluenesulphonyl)-N'-(2-endo-hydroxy-3-endo-bornyl)-urea, reference compound]
ED30 [1]: 3.8 mg/kg | ED30 relative to SPC-5002 [2]: almost three times as big as for SPC-5002 | ED30 ([2]; Mus musculus, oral, read-out: Effective oral doses ED30): 5.2 mg/kg | ED30 [3]: 7.6 mg/kg | duration of decreased blood glucose after one dose ([4]; one dose): 6 h | glucose concentration in blood, average ([4]; 0 h): 68 mg/100 cc | glucose concentration in blood, average ([4]; 1 h): 48 mg/100 cc | glucose concentration in blood, average ([4]; 3 h): 47 mg/100 cc | glucose concentration in blood, average ([4]; 6 h): 65 mg/100 cc | glucose concentration in blood, average ([4]; 9 h): 74 mg/100 cc | glucose concentration in blood, average ([4]; 24 h): 77 mg/100 cc | glucose concentration in blood, average ([5]; 0 h): 74 mg/100 cc | glucose concentration in blood, average ([5]; 0.5 h): 62 mg/100 cc | glucose concentration in blood, average ([5]; 1 h): 63 mg/100 cc | % of decrease /-/ or increase /+/ of blood glucose ([5]; 3 h): 0% | glucose concentration in blood, average ([5]; 3 h): 74 mg/100 cc | glucose concentration in blood, average ([5]; 6 h): 75 mg/100 cc | glucose concentration in blood, average ([5]; 9 h): 75 mg/100 cc | glucose concentration in blood, average ([5]; 24 h): 78 mg/100 cc | % of inhibition, oxygen consumption ([6]; concentration 0.5 n M): 22% | % of inhibition, oxygen consumption ([6]; concentration 1.0 n M): 47% | Ki ([6]; rat liver mitochondria): 1150 µM | % of inhibition, oxidizing phosphorylation ([7]; concentration 0.5 n M): 32% | % of inhibition, oxidizing phosphorylation ([7]; concentration 1.0 n M): 59% | Ki ([7]; rat liver mitochondria): 760 µM | Calcium transmission / Oxide consumption (ratio of inhibition) ([8]; concentration 0.5 n M): 2.36 | % of inhibition, calcium transmission ([8]; concentration 0.5 n M): 52% | Calcium transmission / Oxide consumption (ratio of inhibition) ([8]; concentration 1.0 n M): 1.60 | % of inhibition, calcium transmission ([8]; concentration 1.0 n M): 76% | Ki ([8]; rat liver mitochondria): 490 µM | preference of inhibition: calcium transmission versus oxidizing processes ([8]; rat liver mitochondria): preferential inhibiting of calcium transmission | decrease in glucose blood level at peak of activity ([9]; dose 2.5 times that of SPC-5002 (12.5 mg)): 19% | Glucose concentration ([9]; 0 mins (empty stomach)): 91.0 mg/100 cc | Glucose concentration ([9]; 30 mins): 87.0 mg/100 cc | Glucose concentration ([9]; 60 mins): 80.0 mg/100 cc | Glucose concentration ([9]; 90 mins): 74.0 mg/100 cc | Glucose concentration ([9]; 120 mins): 75.0 mg/100 cc | Glucose concentration ([9]; 180 mins): 76.0 mg/100 cc | Insulin concentration ([10]; 0 mins (empty stomach)): 3.6 μU/cc | Insulin concentration ([10]; 30 mins): 4.2 μU/cc | Insulin concentration ([10]; 60 mins): 6.2 μU/cc | Insulin concentration ([10]; 90 mins): 5.2 μU/cc | Insulin concentration ([10]; 120 mins): 6.4 μU/cc | Insulin concentration ([10]; 180 mins): 4.4 μU/cc | Free fatty acids concentration ([11]; 0 mins (empty stomach)): 0.76 mEq/1000 cc | Free fatty acids concentration ([11]; 30 mins): 0.58 mEq/1000 cc | Free fatty acids concentration ([11]; 60 mins): 0.46 mEq/1000 cc | Free fatty acids concentration ([11]; 90 mins): 0.48 mEq/1000 cc | Free fatty acids concentration ([11]; 120 mins): 0.51 mEq/1000 cc | Free fatty acids concentration ([11]; 180 mins): 0.52 mEq/1000 cc
